From patent publication US20120129869A1, “PHOSPHORYLATION AND MUTATIONS OF ANAPLASTIC LYMPHOMA KINASE AS A DIAGNOSTIC AND THERAPEUTIC TARGET IN LUNG CANCER” (Academia Sinica, priority 2010, published 2012)

What was measured:
[1] = test system: H1299 transfectants of wild type, H694R and E1384K ALKs; assay: WST-1 cell growth, wild type and mutated ALK transfectants together; format: cell-based; conditions: both wild type and mutated ALK transfectants
Source text: The full-length cDNA of ALK-wild type was inserted into pCDNA3.0 vector by restriction sites Hind III and Not I. All ALK mutations were generated from the template of pCDNA3.0-ALK-wild type full-length construct using site-directed mutagenesis. H1299 and NIH3T3 cells were maintained in Dulbecco's Modified Eagle Medium (DMEM) medium supplemented with 10% Fetal Bovine Serum (FBS) and streptomycin. The H1299 and NIH3T3 cells were transfected with the expression constructs by Lipofectamine 2000 (Invitrogen) and further selected by G418 to establish mixtures of ALK-expressed transfectants.
For analysis of cell growth, a total of 1×10^3 cells/well was seeded in 96-well plate. After different culturing time, 10 μl/well WST-1 reagent (Roche Diagnostics) was added for reaction at 37° C. for 50 minutes. The absorbance at 450 nm was measured.

phosphorylated-Y1604 ALK [2] = assay: Western blotting of phosphorylated-Y1604 ALK expression in H1299 transfectants; format: cell-based; conditions: both wild type and mutated ALK transfectants
Source text: For Western blotting analysis, the membranes were probed with specific antibodies against HA (Covance), phospho-tyrosine (4G10; Upstate Biotechnology), STAT3 (sc-482; Santa Cruz) and α-tubulin (DM1A; NeoMarkers). The phospho-ALK (Tyr1604), phospho-Akt ([…]), phospho-STAT3 (Tyr705), phospho-ERK (Thr202/Tyr204), Akt and ERK antibodies were purchased from Cell Signaling. For IHC staining assay, the tissue sections were stained with specific antibodies against phospho-ALK (pY1604; Epitomics), ALK (4204-1; Epitomics), phospho-STAT3 (Tyr705, D3A7; Cell Signaling) and phospho-Akt (Ser473, 736E11; Cell Signaling). The ALK inhibitor WHI-P154 was purchased from Calbiochem.
Cells were lysed in RIPA buffer (200 mM Tris, 150 mM NaCl, 1 mM EDTA, 1% NP40, 1 mM PMSF, 1 mM DTT) with addition of 1× phosphatase inhibitor cocktail set II from Calbiochem and 1× cocktails of protease inhibitor from Roche. The protein concentration was measured by BCA protein assay kit (Pierce Chemical). The equal amounts of cell lysates were subjected to SDS-PAGE, transferred to NC membranes, and then probed with specific antibody for protein detection. For co-immunoprecipitation assay, the equal amounts of cell lysates were firstly incubated with anti-HA antibody for one hour and subsequently reacted with protein A/G for overnight. […]

H1299 cells [3] = assay: Anchorage-independent growth (soft agar) assay; format: cell-based; conditions: compared with DMSO control
Description: A total of 2×10^4 H1299 or NIH3T3 transfectants were mixed in a final 0.3% agarose and plated onto the 60-mm plate containing 0.5% agarose. These cells were further cultured in 5% CO2 incubator at 37° C. for one month. The plates were dehydrated at room temperature and then stained with 0.3% crystal violet for visualizing colonies. The colony numbers were counted by using Image-pro plus analysis program.

H1299 cells [4] = assay: Boyden chamber cell migration assay; format: cell-based; conditions: compared with DMSO control
Description: The cell migration capability was examined by Boyden chamber assay. Briefly, a total of 2×10^4 H1299 or NIH3T3 transfectants were inoculated into the cell migration insert (BD Biosciences) containing 350 μl DMEM medium alone, and the insert was placed into the well containing 750 μl complete DMEM medium in 24-well plate. After 24 hours incubation, the migrated cells were fixed with 100% methanol and stained by Giemsa's solution (Merck). The numbers of migrated cells were counted by using Image-pro plus analysis program.

[5] = test system: H694R and E1384K ALK H1299 transfectants xenograft; assay: In vivo xenograft tumor formation assay; design: species or system BALB/c NU mice; conditions: ALK mutations-bearing mice, 1 mg/kg/day intravenously, versus DMSO control
Description: (§1) Animal protocol was approved by the Institutional Animal Safety Committee. A total of 1×10^6 ALK-wild type or mutants expressed H1299 transfectants were mixed with matrigel (BD) and then subcutaneously injected into the right flank of four-week-old BALB/c NU mice. For WHI-P154 treatments, the nude mice were randomly divided into two groups when the mean tumor volume reached 20-50 mm^3. DMSO or WHI-P154 (1 mg/kg/day) was intravenously injected daily. The tumor volumes were measured weekly and calculated according to the formula: volume=length×width^2×0.52.

phosphorylated-Y1604 ALK [6] = assay: IHC staining of phosphorylated-Y1604 ALK in xenograft tumor sections; format: in vivo, nude mice; conditions: H694R and E1384K xenograft tumor sections, versus DMSO control
Description: Human lung cancer tissue arrays containing 37 normal lung and 263 lung cancer sections from Pantomics (Luc961, Luc962, Luc1501, Luc1502 and Luc1503) were deparaffinized and the frozen tumor sections from the xenograft nude mice were fixed in 3% formaldehyde solution. All sections were treated in 3% H2O2 buffer for 30 minutes to inactivate the endogenous peroxidase activities, and then treated with 0.01M sodium citrate buffer for antigen retrieval. After blocking with 10% normal goat serum, these sections were reacted with specific antibodies at 4° C. for overnight. Subsequently, these sections were incubated with Super Picture HRP polymer conjugate secondary antibody (Zymed Laboratories), and then stained with DAB chromagen (Zymed Laboratories). These sections were also stained with Hematoxylin (DAKO).
as §1

[7] = test system: GFP-labeled H1299 transfectants of H694R and E1384K ALK; assay: In vivo metastasis assay (tail vein injected lung metastasis model); design: species or system nude mice; conditions: 1 mg/kg/day intravenously
Description: In order to examine the in vivo metastatic capability, ALK wild type or mutations expressed H1299 transfectants were infected with GFP-lentivirus to generate the GFP fluorescence-labeled cells. A total of 2×10^6 cells were injected into nude mice through tail vein for measuring lung metastasis. For investigation of the tumor suppressive effects using ALK inhibitor, the nude mice were intravenously injected daily with WHI-P154 (1 mg/kg/day) after cell inoculation for 14 days. The survival rate was recorded daily and scarified the rest mice after 105 days. The pulmonary metastasis of GFP-labeled H1299 transfectants were visualized by fluorescence stereomicroscope.

COc1cc2ncnc(Nc3ccc(O)c(Br)c3)c2cc1OC [WHI-P154]
inhibition of cell growth [1]: dose-dependent inhibition
inhibition of expression of phosphorylated-Y1604 ALK (phosphorylated-Y1604 ALK [2]): dose-dependent inhibition
inhibition of soft agar growth (H1299 cells [3]): profound inhibition
inhibition of cell migration (H1299 cells [4]): profound inhibition
tumor growth [5]: significant reduction of tumor growth
expression of phosphorylated-Y1604 ALK in tumor sections (phosphorylated-Y1604 ALK [6]): significant lower expression of phosphorylated-Y1604 ALK
survival ([7]; mice with H694R and E1384K mutations): survive as long as control mice
lung metastasis ([7]; mutation-bearing mice): significantly suppresses lung metastasis
